Columns and labels:
Type in all cases: in vivo
Settings in all cases: evaluated after 13 days
[1] = tested on: Alopecurus myosuroides (ALOMY); experiment: Herbicidal glasshouse test, pre-emergence, ALOMY
Solanum nigrum (SOLNI) [2] = experiment: Herbicidal glasshouse test, pre-emergence, SOLNI
Outline: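 This pre-emergence glasshouse herbicide test used Solanum nigrum sown in standard soil. One day after sowing, pots were sprayed with the compound in acetone/water (50:50) with 0.5% Tween 20. They were then grown at 24/16° C., with 14 hours light and 65% humidity, and watered twice daily. Percentage damage was scored after 13 days on a five point scale, where 5=80-100% and 1=0-19%.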

Solanum nigrum (SOLNI) [3] = experiment: Herbicidal glasshouse test, post-emergence, SOLNI
Setaria faberi (SETFA) [4] = experiment: Herbicidal glasshouse test, post-emergence, SETFA
Outline: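 This post-emergence glasshouse herbicide test used potted Setaria faberi. Plants were cultivated for 8 days under controlled conditions (24/16° C. day/night, 14 hours light, 65% humidity) and then treated with an aqueous spray made from an acetone/water (50:50) solution containing 0.5% Tween 20. After 13 days of further growth with twice-daily watering, damage was rated on a five point scale (5=80-100%; 1=0-19%).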

[5] = tested on: Echinochloa crus-galli (ECHCG); experiment: Herbicidal glasshouse test, post-emergence, ECHCG
Outline: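 In this post-emergence glasshouse test, barnyard grass (ECHCG) was cultivated for 8 days under controlled conditions (24/16° C. day/night, 14 hours light, 65% humidity). It was then sprayed with an aqueous solution of the technical compound in acetone / water (50:50) with 0.5% Tween 20. Plants were kept under the same conditions and watered twice daily. After 13 days, percentage damage was rated on a five point scale (5=80-100%; 1=0-19%).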

[6] = tested on: Ipomoea hederacea (IPOHE); experiment: Herbicidal glasshouse test, post-emergence, IPOHE
[7] = tested on: Alopecurus myosuroides (ALOMY); experiment: Herbicidal glasshouse test, post-emergence, ALOMY
[8] = tested on: Amaranthus retoflexus (AMARE); experiment: Herbicidal glasshouse test, pre-emergence, AMARE
Outline: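 This pre-emergence glasshouse herbicide test used Amaranthus retoflexus sown in standard soil. After one day of cultivation, an aqueous spray made from the technical ingredient in 50:50 acetone/water with 0.5% Tween 20 was applied. Pots stayed at 24/16° C., 14 hours light, 65% humidity, with twice-daily watering. Damage was rated on a five point scale (1=0-19% up to 5=80-100%).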

[9] = tested on: Echinochloa crus-galli (ECHCG); experiment: Herbicidal glasshouse test, pre-emergence, ECHCG
Outline: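 In this pre-emergence glasshouse test, ECHCG seeds sown in pots of standard soil were sprayed one day after sowing with the test material in acetone/water (50:50) containing 0.5% Tween 20. Plants were kept at 24/16° C., 14 hours light, 65% humidity, and watered twice daily. Percentage damage was rated after 13 days on a 1–5 scale.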

[10] = tested on: Amaranthus retoflexus (AMARE); experiment: Herbicidal glasshouse test, post-emergence, AMARE
Outline: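 This post-emergence glasshouse test used AMARE plants raised in standard soil for 8 days under controlled conditions (24/16° C. day/night, 14 hours light, 65% humidity). Foliage was sprayed with formulated compound in acetone/water (50:50) containing 0.5% Tween 20. Plants were then watered twice daily, and after 13 days percentage damage was rated on a five point scale.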

[11] = tested on: Ipomoea hederacea (IPOHE); experiment: Herbicidal glasshouse test, pre-emergence, IPOHE
Setaria faberi (SETFA) [12] = experiment: Herbicidal glasshouse test, pre-emergence, SETFA

Row | SMILES | PRE Application ALOMY, percentage damage (five point scale) ([1]; applied at 1000 g/h) | PRE Application SOLNI, percentage damage (five point scale) (Solanum nigrum (SOLNI) [2]; applied at 1000 g/h) | POST Application SOLNI, percentage damage (five point scale) (Solanum nigrum (SOLNI) [3]; applied at 1000 g/h) | POST Application SETFA, percentage damage (five point scale) (Setaria faberi (SETFA) [4]; applied at 1000 g/h) | POST Application ECHCG, percentage damage (five point scale) ([5]; applied at 1000 g/h) | POST Application IPOHE, percentage damage (five point scale) ([6]; applied at 1000 g/h) | POST Application ALOMY, percentage damage (five point scale) ([7]; applied at 1000 g/h) | PRE Application AMARE, percentage damage (five point scale) ([8]; applied at 1000 g/h) | PRE Application ECHCG, percentage damage (five point scale) ([9]; applied at 1000 g/h) | POST Application AMARE, percentage damage (five point scale) ([10]; applied at 1000 g/h) | PRE Application IPOHE, percentage damage (five point scale) ([11]; applied at 1000 g/h) | PRE Application SETFA, percentage damage (five point scale) (Setaria faberi (SETFA) [12]; applied at 1000 g/h) | further results
1 | Cn1nnnc1NC(=O)c1nn(C)c(=O)n(-c2ccc(Cl)c(C#N)c2)c1=O [Compound 1.047] |  |  |  |  |  |  |  |  |  |  |  |  | PRE Application ALOMY, percentage damage (five point scale) ([1]; applied at 250 g/ha): 1 (1=0-19%); PRE Application SOLNI, percentage damage (five point scale) (Solanum nigrum (SOLNI) [2]; applied at 250 g/ha): 5 (5=80-100%); POST Application SOLNI, percentage damage (five point scale) (Solanum nigrum (SOLNI) [3]; applied at 250 g/ha): 5 (5=80-100%); POST Application SETFA, percentage damage (five point scale) (Setaria faberi (SETFA) [4]; applied at 250 g/ha): 1 (1=0-19%); POST Application ECHCG, percentage damage (five point scale) ([5]; applied at 250 g/ha): 3 (3=40-59%); POST Application IPOHE, percentage damage (five point scale) ([6]; applied at 250 g/ha): 4 (4=60-79%); POST Application ALOMY, percentage damage (five point scale) ([7]; applied at 250 g/ha): 3 (3=40-59%); PRE Application AMARE, percentage damage (five point scale) ([8]; applied at 250 g/ha): 5 (5=80-100%); PRE Application ECHCG, percentage damage (five point scale) ([9]; applied at 250 g/ha): 3 (3=40-59%); POST Application AMARE, percentage damage (five point scale) ([10]; applied at 250 g/ha): 5 (5=80-100%); PRE Application IPOHE, percentage damage (five point scale) ([11]; applied at 250 g/ha): 5 (5=80-100%); PRE Application SETFA, percentage damage (five point scale) (Setaria faberi (SETFA) [12]; applied at 250 g/ha): 1 (1=0-19%)
2 | Cn1nnnc1NC(=O)c1nn(C)c(=O)n(-c2ccc(F)cc2)c1=O [Compound 1.015] | 5 (5=80-100%) | 5 (5=80-100%) | 5 (5=80-100%) | 5 (5=80-100%) | 5 (5=80-100%) | 5 (5=80-100%) | 5 (5=80-100%) | 5 (5=80-100%) | 5 (5=80-100%) | 5 (5=80-100%) | 5 (5=80-100%) | 5 (5=80-100%) | 
3 | Cn1nnnc1NC(=O)c1nn(C)c(=O)n(Cc2ccccc2F)c1=O [Compound 1.058] | 5 (5=80-100%) | 5 (5=80-100%) | 5 (5=80-100%) | 5 (5=80-100%) | 5 (5=80-100%) | 5 (5=80-100%) | 5 (5=80-100%) | 5 (5=80-100%) | 5 (5=80-100%) | 5 (5=80-100%) | 5 (5=80-100%) | 5 (5=80-100%) | 
4 | Cn1nnnc1NC(=O)c1nn(C)c(=O)n(-c2ccc(C(C)(C)C)cc2)c1=O [Compound 1.040] | 5 (5=80-100%) | 5 (5=80-100%) | 5 (5=80-100%) | 5 (5=80-100%) | 5 (5=80-100%) | 4 (4=60-79%) | 4 (4=60-79%) | 5 (5=80-100%) | 5 (5=80-100%) | 5 (5=80-100%) | 3 (3=40-59%) | 5 (5=80-100%) | 
5 | Cn1nnnc1NC(=O)c1nn(C)c(=O)n(Cc2ccc(SC(F)(F)F)cc2)c1=O [Compound 1.080] | 5 (5=80-100%) | 5 (5=80-100%) | 5 (5=80-100%) | 5 (5=80-100%) | 4 (4=60-79%) | 5 (5=80-100%) | 5 (5=80-100%) | 5 (5=80-100%) | 5 (5=80-100%) | 5 (5=80-100%) | 5 (5=80-100%) | 5 (5=80-100%) | 
6 | Cn1nnnc1NC(=O)c1nn(C)c(=O)n(-c2ccc(F)c(Cl)c2)c1=O [Compound 1.008] | 5 (5=80-100%) | 5 (5=80-100%) | 5 (5=80-100%) | 5 (5=80-100%) | 5 (5=80-100%) | 5 (5=80-100%) | 5 (5=80-100%) | 5 (5=80-100%) | 5 (5=80-100%) | 5 (5=80-100%) | 5 (5=80-100%) | 5 (5=80-100%) | 
7 | COc1cc(-n2c(=O)c(C(=O)Nc3nnnn3C)nn(C)c2=O)ccc1F [Compound 1.048] | 5 (5=80-100%) | 5 (5=80-100%) | 5 (5=80-100%) | 5 (5=80-100%) | 5 (5=80-100%) | 5 (5=80-100%) | 5 (5=80-100%) | 5 (5=80-100%) | 5 (5=80-100%) | 5 (5=80-100%) | 5 (5=80-100%) | 5 (5=80-100%) | 
8 | Cn1nnnc1NC(=O)c1nn(C)c(=O)n(-c2ccc(Cl)cc2)c1=O [Compound 1.024] | 5 (5=80-100%) | 5 (5=80-100%) | 5 (5=80-100%) | 5 (5=80-100%) | 5 (5=80-100%) | 5 (5=80-100%) | 5 (5=80-100%) | 5 (5=80-100%) | 5 (5=80-100%) | 5 (5=80-100%) | 5 (5=80-100%) | 5 (5=80-100%) | 
9 | Cn1nnnc1NC(=O)c1nn(C)c(=O)n(Cc2cc(Cl)nc(Cl)c2)c1=O [Compound 1.085] | 5 (5=80-100%) | 5 (5=80-100%) | 5 (5=80-100%) | 2 (2=20-39%) | 5 (5=80-100%) | 5 (5=80-100%) | 5 (5=80-100%) | 5 (5=80-100%) | 5 (5=80-100%) | 5 (5=80-100%) | 5 (5=80-100%) | 2 (2=20-39%) | 
10 | Cc1cc(Cn2c(=O)c(C(=O)Nc3nnnn3C)nn(C)c2=O)cc(C)c1F [Compound 1.078] | 2 (2=20-39%) | 5 (5=80-100%) | 5 (5=80-100%) | 2 (2=20-39%) | 4 (4=60-79%) | 5 (5=80-100%) | 2 (2=20-39%) | 5 (5=80-100%) | 2 (2=20-39%) | 5 (5=80-100%) | 2 (2=20-39%) | 1 (1=0-19%) | 

Source: US20160009693A1, “HERBICIDAL COMPOUNDS” (SYNGENTA LIMITED, priority 2013, published 2016)
